Our source for the Ki, inhibition and IC50 values is ChEMBL document CHEMBL4043136, “Chiral-pool synthesis of 1,2,4-trisubstituted 1,4-diazepanes as novel σ1 receptor ligands” (Bioorg Med Chem, 2017).

As a reminder, the Ki is a measure of affinity in units of concentration, obtained from inhibition or displacement. A low value points to a stronger hold on the target. What is called IC50 is the concentration at which inhibition is half-maximal. Lower therefore signals inhibition by little substance.

Structures are written as SMILES. The source made the active and inactive calls. The calls are words filed in the database; no cut-off is given here. Bounds are passed on as bounds.

In assay [1] the target is Sigma non-opioid intracellular receptor 1 (Cavia porcellus, UniProt Q60492). Nature of the assay: Displacement of [3H]-pentazocine from sigma1 receptor in guinea pig brain membranes after 120 mins by liquid scintillation counting. The assay is classed as cell membranes, Membrane. (Loss of bound radioactivity is the signal in a displacement assay; it reports binding, not function.)

Assay [2] addresses C-8 sterol isomerase ERG2 (Saccharomyces cerevisiae S288c) (UniProt P32352). Nature of the assay: Inhibition of yeast sterol-delta8/7-isomerase assessed as accumulation of cholesta-7-en-3beta-ol at 1 uM.
For assay [3], the target named is T1, Sigma intracellular receptor 2 (Rattus norvegicus, UniProt Q5U3Y7).
T1 sequence (Q5U3Y7 whole entry): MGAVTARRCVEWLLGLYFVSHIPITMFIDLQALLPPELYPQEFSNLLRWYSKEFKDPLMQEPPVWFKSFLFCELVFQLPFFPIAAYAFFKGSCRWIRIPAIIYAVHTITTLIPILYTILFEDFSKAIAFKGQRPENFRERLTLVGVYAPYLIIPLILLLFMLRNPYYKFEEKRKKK
Nature of the assay: Displacement of [3H]-DTG from sigma2 receptor in rat liver membranes after 120 mins by liquid scintillation counting. Type of assay: cell membranes, Membrane.

The target in assay [4] is C-8 sterol isomerase ERG2 (Saccharomyces cerevisiae S288c) (UniProt P32352). Nature of the assay: Inhibition of yeast sterol-delta8/7-isomerase assessed as accumulation of cholesta-8-en-3beta-ol at 1 uM.
Assay [5] shares this target. Nature of the assay: Inhibition of yeast sterol-delta8/7-isomerase assessed as accumulation of cholesta-5,7-dien-3beta-ol at 1 uM.
The nature of assay [6]: Displacement of [3H]-(+)-MK 801 from PCP binding site of NMDA receptor in pig brain cortex membranes after 120 mins by liquid scintillation spectrometry. The assay is classed as cell membranes, Sus scrofa.
The target in assay [7] is C-8 sterol isomerase ERG2 (Saccharomyces cerevisiae S288c) (UniProt P32352). Nature of the assay: Inhibition of yeast sterol-delta8/7-isomerase assessed as accumulation of cholesta-8,14-dien-3beta-ol at 1 uM.
For assay [8] the target is unchanged. Nature of the assay: Inhibition of yeast sterol-delta8/7-isomerase assessed as accumulation of cholesta-5,7-dien-3beta-ol at 50 uM.
The target is the same in assay [9]. Nature of the assay: Inhibition of yeast sterol-delta8/7-isomerase assessed as accumulation of cholesta-8,14-dien-3beta-ol at 50 uM.
Assay [10] shares this target. Nature of the assay: Inhibition of yeast sterol-delta8/7-isomerase assessed as accumulation of cholesta-8-en-3beta-ol at 50 uM.
For assay [11] the target is unchanged. Nature of the assay: Inhibition of yeast sterol-delta8/7-isomerase assessed as accumulation of cholesta-7-en-3beta-ol at 50 uM.

Sequence of Sigma non-opioid intracellular receptor 1 (Q60492 whole entry): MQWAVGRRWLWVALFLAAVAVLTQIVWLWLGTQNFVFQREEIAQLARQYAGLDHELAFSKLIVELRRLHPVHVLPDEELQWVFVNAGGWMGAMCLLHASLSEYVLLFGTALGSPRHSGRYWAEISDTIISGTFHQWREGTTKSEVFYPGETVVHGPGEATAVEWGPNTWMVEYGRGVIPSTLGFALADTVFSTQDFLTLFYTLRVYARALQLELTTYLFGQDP
Sequence of C-8 sterol isomerase ERG2 (Saccharomyces cerevisiae S288c) (P32352 whole entry, looked up): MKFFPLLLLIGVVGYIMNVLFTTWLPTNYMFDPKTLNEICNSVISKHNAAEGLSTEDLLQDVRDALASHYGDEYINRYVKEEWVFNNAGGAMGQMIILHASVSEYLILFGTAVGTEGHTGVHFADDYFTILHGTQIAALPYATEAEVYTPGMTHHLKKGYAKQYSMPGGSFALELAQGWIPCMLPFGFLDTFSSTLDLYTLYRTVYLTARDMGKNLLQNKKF

In turn, `CCCCN1CCN(CCc2ccc(Cl)c(Cl)c2)CC1` displayed a Ki in [1] of 0.00055 µM.

Consider `c1ccc(CCCCN2CCCN(Cc3ccccc3)[C@H](Cc3ccccc3)C2)cc1`, for which the inhibition entry in assay [2], in [5], in assay [8], in assay [9], in assay [10] and in assay [11] was “Active” throughout. Also, the Ki in assay [3] worked out at 0.423 µM; in [1], 0.028 µM. The inhibition result in assay [4] and in assay [7] was “inactive” in each case. In [6], this molecule registered an IC50 of more than 1 µM.

As to `COc1ccc(CN2CCCN(Cc3ccccc3)[C@@H](C(C)C)C2)cc1`, the inhibition result in assay [2], in assay [4], in assay [5], in [7], in assay [8] and in assay [10] was “Active” each time. Besides, in assay [11], the inhibition entry is “Active”. Also, the Ki is more than 1 µM in [3] and 0.02 µM in assay [1]. In assay [6], the half-maximal inhibitory concentration (IC50) was more than 1 µM. Moreover, the inhibition result in assay [9] was “inactive”.

On to `CCCCN1CCCN(CCCCc2ccccc2)[C@@H](Cc2ccccc2)C1`, for which the values for the Ki in [3] and in assay [1] were more than 1 µM and 0.0062 µM, respectively. This molecule registered an IC50 in [6] of more than 1 µM.

As for `CCCCN1CCCN(Cc2ccccc2)[C@H](C)C1`, the inhibition result in assay [2], in assay [4], in assay [7], in assay [8] and in [11] was “Active” each time. Also, the Ki in assay [3] came out at 0.372 µM; in assay [1], 0.00037 µM. In addition, the inhibition entry in [5], in assay [9] and in assay [10] was “inactive” each time. The IC50 in assay [6] is more than 1 µM.

As to `CCCCN1CCCN(CCCC)[C@@H](Cc2ccccc2)C1`, the Ki in assay [3] is 0.278 µM; in assay [1] it was 0.018 µM. Besides, the IC50 in [6] was more than 1 µM.

Regarding `COc1ccc(CN2CCCN(CC3CCCCC3)C[C@@H]2C)cc1`, the Ki in assay [3] was found to be 0.019 µM; in assay [1], 0.0011 µM. The IC50 in assay [6] is more than 1 µM.

Take `OCC(c1ccccc1)N1CCCN(Cc2ccccc2)[C@@H](Cc2ccccc2)C1` (some centres not stated): the Ki in assay [3] was more than 1 µM; in [1], 0.228 µM. Moreover, the IC50 in assay [6] was more than 1 µM.

Turning to `C[C@@H]1CN(CCCCc2ccccc2)CCCN1Cc1ccccc1`, the inhibition entry in [2], in [4], in assay [5], in assay [8] and in assay [11] was “Active” in each case. Further, the figures for the Ki in [3] and in [1] were 0.071 µM and 0.00083 µM, respectively. The IC50 in assay [6] was more than 1 µM. The inhibition result in assay [7], in assay [9] and in assay [10] was “inactive” in each case.

Regarding `c1ccc(CCCN2CCCN(Cc3ccccc3)[C@@H](Cc3ccccc3)C2)cc1`, the inhibition entry in [2], in assay [4], in [5] and in assay [7] was “Active” in each case. The Ki in assay [3] is 0.193 µM; in assay [1] it was 0.073 µM. Further, the IC50 in assay [6] is more than 1 µM.

As for `CCCCN1CCCN(C)[C@H](Cc2ccccc2)C1`, the Ki in [3] stood at 1 µM; in [1], 0.113 µM. Further, the IC50 in assay [6] was more than 1 µM.

In the case of `c1ccc(CCCN2CCCN(Cc3ccccc3)[C@H](Cc3ccccc3)C2)cc1`, the inhibition entry in assay [2], in assay [4], in assay [7], in assay [8], in assay [9] and in assay [10] was “Active” throughout. The inhibition result in [11] was “Active”. Further, the Ki in assay [3] was determined as 0.3 µM; in [1] it was 0.025 µM. In assay [5], the inhibition result is “inactive”. In assay [6], the IC50 was more than 1 µM.

For the molecule `CCCCN1CCCN(Cc2ccccc2)[C@@H](C)C1`, the inhibition result in [2], in [4], in [5], in assay [7], in assay [8] and in assay [11] was “Active” in each case. Moreover, the Ki in [3] was 0.276 µM; in assay [1] it was 0.00061 µM. The concentration for half-maximal inhibition (IC50) in assay [6] is more than 1 µM. The inhibition result in assay [9] and in assay [10] was “inactive” throughout.

In the case of `c1ccc(C[C@H]2CNCCCN2Cc2ccccc2)cc1`, the inhibition result in assay [2], in [4], in [5], in [7], in assay [9] and in assay [11] was “Active” throughout. In addition, the Ki in [3] was more than 10 µM; in assay [1] it was more than 1 µM. Further, the IC50 in assay [6] is more than 1 µM. In addition, the inhibition result in assay [8] and in assay [10] was “inactive” in each case.

With `CCCCN1CCCN(C)[C@@H](Cc2ccccc2)C1`, the Ki is more than 1 µM in [3] and 0.12 µM in assay [1]. The molecule further gave an IC50 in [6] of more than 1 µM.

In the case of `CN1CCCN(Cc2ccccc2)[C@H](Cc2ccccc2)C1`, the inhibition entry in assay [2], in assay [5], in assay [7], in [8], in assay [9] and in assay [10] was “Active” throughout. In addition, the inhibition result in assay [11] was “Active”. The Ki in assay [3] is more than 1 µM; in assay [1], 0.28 µM. Also, in [4], the inhibition result is “inactive”. Further, in [6], the IC50 was more than 1 µM.

`c1ccc(C[C@@H]2CNCCCN2Cc2ccccc2)cc1`: the inhibition result in assay [2], in assay [4], in [5], in assay [7], in assay [8] and in [9] was “Active” each time. Moreover, in assay [11], the inhibition result was “Active”. Moreover, the Ki in assay [3] and in assay [1] was more than 1 µM each time. This molecule also gave an IC50 in [6] of more than 1 µM. Also, the inhibition result in assay [10] is “inactive”.

`CN1CCCN(Cc2ccccc2)[C@@H](Cc2ccccc2)C1`: the inhibition entry in assay [2], in assay [5], in assay [7], in [8] and in [11] was “Active” each time. The Ki is more than 1 µM in [3] and 0.448 µM in assay [1]. Also, the inhibition entry in [4], in assay [9] and in assay [10] was “inactive” in each case. The molecule further registered an IC50 in assay [6] of more than 1 µM.

For the molecule `CCCCN1CCCN(CCCC)[C@H](Cc2ccccc2)C1`, the values for the Ki in assay [3] and in assay [1] were more than 1 µM and 0.021 µM, respectively. The molecule also showed an IC50 in assay [6] of more than 1 µM.

Consider `c1ccc(CCCCN2CCCN(Cc3ccccc3)[C@@H](Cc3ccccc3)C2)cc1`, for which the inhibition entry in [2], in assay [5] and in assay [7] was “Active” throughout. In addition, the Ki in assay [3] is 0.372 µM; in assay [1] it was 0.038 µM. In assay [4], the inhibition entry is “inactive”. The molecule also displayed an IC50 in assay [6] of more than 1 µM.

On to `COc1ccc(CN2CCCN(Cc3ccccc3)[C@H](C)C2)cc1`, for which the Ki in assay [3] stood at 0.431 µM; in assay [1], 0.00051 µM. In addition, the IC50 in [6] was more than 1 µM.

For the molecule `OC(CN1CCCN(Cc2ccccc2)[C@@H](Cc2ccccc2)C1)c1ccccc1` (some centres not stated), the Ki in [3] was 0.903 µM; in assay [1], 0.234 µM. For the same molecule, in assay [6], the IC50 is more than 1 µM.

On to `CCCCN1CCCN(CCCCc2ccccc2)[C@H](Cc2ccccc2)C1`, for which the values for the Ki in assay [3] and in [1] were 0.942 µM and 0.013 µM, respectively. The same molecule gave an IC50 in assay [6] of more than 1 µM.

As for `C[C@H]1CN(CC2CCCCC2)CCCN1Cc1ccc(Cl)cc1`, the Ki came to 0.051 µM in assay [3] and 0.0049 µM in assay [1]. Moreover, in assay [6], the IC50 is more than 1 µM.

As for `c1ccc(CCN2CCCN(Cc3ccccc3)[C@H](Cc3ccccc3)C2)cc1`, the inhibition result in [2], in [4], in assay [5] and in assay [7] was “Active” each time. The Ki is more than 1 µM in [3] and 0.052 µM in assay [1]. Moreover, the IC50 in [6] is more than 1 µM.

As for `C[C@H]1CN(CCCCc2ccccc2)CCCN1Cc1ccccc1`, the inhibition entry in assay [2], in assay [4] and in [5] was “Active” each time. Moreover, the Ki was 0.0086 µM in assay [3] and 0.00077 µM in [1]. In assay [6], this molecule gave an IC50 of more than 1 µM. Also, the inhibition result in assay [7] is “inactive”.
